“And” between values parts separate entries of the source, which are not always exact repeats. Equal entries are not always repeated. Marks after values point to notes of the source that are not given here.
Experiments:
[1] = target: T1, Rat recombinant α2,3(O)ST (Rattus norvegicus, UniProt Q11205); experiment: Sialyltransferase assay with cloned α2,3(O)ST; format: biochemical; conditions: for Sialyltransferase activity (%) Cloned α2,3(O)ST: Table I, acceptor 7.5 mM, 100% = 40560 CPM (3-O-MeGalβ1,4GlcNAcβ1,6(Galβ1,3)GalNAcα-O-Bn); for Cloned Sialyltransferase Activities α2,3(O) ST %: Table III, compound 7.5 mM, 100% = 39200 CPM (3-O-MeGalβ1,4GlcNAcβ1,6(Galβ1,3)GalNAcα-O-Bn)
T1 construct: purchased Calbiochem
T1 sequence (Q11205 1-350): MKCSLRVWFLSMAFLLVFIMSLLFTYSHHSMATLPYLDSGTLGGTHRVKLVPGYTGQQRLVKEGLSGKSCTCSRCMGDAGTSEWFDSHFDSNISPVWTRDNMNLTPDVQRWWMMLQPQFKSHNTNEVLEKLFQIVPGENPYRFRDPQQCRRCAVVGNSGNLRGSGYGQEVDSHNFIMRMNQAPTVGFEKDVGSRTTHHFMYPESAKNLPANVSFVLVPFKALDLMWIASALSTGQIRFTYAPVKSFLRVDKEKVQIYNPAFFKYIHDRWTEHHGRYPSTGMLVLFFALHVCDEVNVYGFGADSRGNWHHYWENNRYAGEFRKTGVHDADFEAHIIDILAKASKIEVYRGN
Method: (§1) Rat recombinant α2,3(O)ST, α2,3(N)ST and α2,6(N)ST were purchased from Calbiochem and stored at either −20° C. or −70° C. as recommended by the supplier. […] 10 μl aliquots of the diluted enzymes were used in the assays run in duplicate.
(§2) The incubation mixtures run in duplicate contained 0.1M NaCacodylate buffer pH6.0, the acceptor (typically at 7.5 mM, or as indicated in some experiments), CMP-[9 ^3H] NeuAc (typically 0.2 μci; 20 μci/nmol or as indicated in some experiments) and the enzyme in a total volume of 20 μl. The control incubation mixtures contained everything except the acceptor. Incubation was carried out for 2 h at 37° C. The enzymatic transfer of [9-^3H] NeuAc to a typical acceptor was linear for 2 h and less than 30% CMP-[9-^3H] NeuAc was utilized. Chromatography, using either Dowex-1-Formate, Sep-Pak C18 or Biogel P2, was applied to separate radioactive product from un-reacted [9-^3H] NeuAc as described below.
(§3) The radioactive products from neutral allyl and methyl glycosides as well as non-glycosides were measured by fractionation on Dowex-1-Formate (Bio-Rad: AG-1X8; 200-400 mesh; format form) as follows: The incubation mixture was diluted with 1.0 ml water and passed through AG-1-formate column (1.0 ml bed volume in a Pasteur pipet which had been washed with 5 ml of 2M Formic acid followed by 10 ml water). The column was washed twice with 1.0 ml water after the entry of the sample and then eluted with 3.0 ml of 0.1M NaCl. The radioactivity present in water and 0.1M NaCl eluates were measured separately using 3a70 scintillation cocktail (Research Products International, Mount Prospect, Ill.) and a Beckman LS6500 scintillation counter. The CPM values were corrected by subtracting the blank CPM. Any radioactivity present in the water eluate (as noticed in the case of some methylglycosides) was added to the corresponding CPM value of 0.1M NaCl eluate. The radioactive products from sulfated and/or sialylated methylglycosides were also measured by the above procedure, only the elution of the AG-1-Formate column was continued further with 3.0 ml of 0.2M NaCl for achieving a complete elution of the radioactive product, a correction being made as before by subtracting the corresponding blank values.
(§4) The radioactive products from benzylglycosides and monosialylated benzylglycosides were measured by hydrophobic chromatography on Sep-Pak C18 cartridge (Waters, Milford, Mass.) and eluting the product with 3.0 ml methanol (30). The radioactivity was determined by liquid scintillation as above.
(§5) For such work, a Biogel P2 column (Fine Mesh; 1.0×116.0 cm) was used with 0.1M pyridine acetate pH5.4 as the eluent at room temperature. The effluent fractions were monitored for radioactivity and the first peak containing radioactivity was collected, lyophilized to dryness, dissolved in 200 μl of water and stored frozen at −20° C. for thin layer chromatography (TLC) and other experimentation.

[2] = target: T2, Rat recombinant α2,6(N)ST (Rattus norvegicus, UniProt P13721); experiment: Sialyltransferase assay with cloned α2,6(N)ST; format: biochemical; conditions: for Sialyltransferase activity (%) Cloned α2,6(N)ST: Table I, acceptor 7.5 mM, 100% = 43500 CPM (Galβ1,4GlcNAcβ-O—Al); for Cloned Sialyltransferase Activities α2,6(N)ST %: Table III, compound 7.5 mM, 100% = 30440 CPM (Galβ1,4GlcNAcβ1,6(3-O-MeGalβ1,3)GalNAcα-O-Bn)
T2 construct: purchased Calbiochem
T2 sequence (P13721 1-403): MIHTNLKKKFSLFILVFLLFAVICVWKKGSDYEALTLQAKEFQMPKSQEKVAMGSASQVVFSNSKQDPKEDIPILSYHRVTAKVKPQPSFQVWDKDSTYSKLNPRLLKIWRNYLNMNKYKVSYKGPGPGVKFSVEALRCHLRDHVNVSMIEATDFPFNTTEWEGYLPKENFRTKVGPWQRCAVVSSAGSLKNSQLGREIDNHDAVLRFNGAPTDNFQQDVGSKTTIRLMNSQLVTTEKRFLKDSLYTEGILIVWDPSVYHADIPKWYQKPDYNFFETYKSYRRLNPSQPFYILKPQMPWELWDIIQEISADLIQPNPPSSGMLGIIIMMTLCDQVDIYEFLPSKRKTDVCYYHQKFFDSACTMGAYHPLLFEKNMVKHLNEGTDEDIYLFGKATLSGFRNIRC
Method: as §1, §2, §3, §4, §5

LNCaP α2,3(O)ST = experiment: Sialyltransferase assay with LNCaP cell extract; format: biochemical, human; conditions: for Sialyltransferase activity (%) LNCaP α2,3(O)ST: Table I, acceptor 7.5 mM, 100% = 30930 CPM (3-O-MeGalβ1,4GlcNAcβ1,6(Galβ1,3)GalNAcα-O-Bn); for LNCaPα2,3(O)ST %: Table III, compound 7.5 mM, 100% = 30100 CPM (3-O-MeGalβ1,4GlcNAcβ1,6(Galβ1,3)GalNAcα-O-Bn)
Method: The prostate carcinoma cell line, LNCaP, was grown in RPMI 1640 supplemented with 10% fetal bovine serum and antibiotics (penicillin, streptomycin and amphotericin B) under conditions recommended by American Type Culture Collection (Manassas, Va.). The cells were homogenized with 0.1M Tris-Maleate pH6.3 containing 2% Triton X-100 using a Dounce all glass hand-operated homogenizer. The homogenate was centrifuged at 16,000 g for 1 h at 4° C. Protein concentration in supernatant was measured using the BCA assay (Pierce Biotech, Inc., Rockford, Ill.), with BSA as the standard. The supernatant was adjusted to 5 mg protein/ml by adding the necessary amount of extraction buffer and then stored frozen at −20° C. until use. 10 μl aliquot of this extract was used in assays run in duplicate.
as §2, §3, §4, §5

[3] = target: T3, Rat recombinant α2,3(N)ST (Rattus norvegicus, UniProt Q02734); experiment: Sialyltransferase assay with cloned α2,3(N)ST; format: biochemical; conditions: for Sialyltransferase activity (%) Cloned α2,3(N)ST: Table I, acceptor 7.5 mM, 100% = 29520 CPM (Galβ1,4GlcNAcβ-O—Al); for Cloned Sialyltransferase Activities α2,3(N) ST %: Table III, compound 7.5 mM, 100% = 38140 CPM (Galβ1,4GlcNAcβ1,6(3-O-MeGalβ1,3)GalNAcα-O-Bn)
T3 construct: purchased Calbiochem
T3 sequence (Q02734 29-374 limits assumed): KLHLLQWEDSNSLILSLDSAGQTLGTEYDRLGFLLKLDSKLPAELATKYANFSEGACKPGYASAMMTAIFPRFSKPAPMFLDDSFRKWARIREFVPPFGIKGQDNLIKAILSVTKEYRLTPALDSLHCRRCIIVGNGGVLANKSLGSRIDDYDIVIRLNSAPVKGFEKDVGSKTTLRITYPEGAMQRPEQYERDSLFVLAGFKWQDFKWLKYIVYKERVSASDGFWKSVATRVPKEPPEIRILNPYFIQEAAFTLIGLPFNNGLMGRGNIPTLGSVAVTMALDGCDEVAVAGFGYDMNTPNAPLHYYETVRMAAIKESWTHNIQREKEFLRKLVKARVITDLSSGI
Method: as §1, §2, §3, §4, §5

Compound	Sialyltransferase activity (%) Cloned α2,3(O)ST [1]	Cloned Sialyltransferase Activities α2,3(O) ST % [1]	Sialyltransferase activity (%) Cloned α2,6(N)ST [2]	Cloned Sialyltransferase Activities α2,6(N)ST % [2]	Sialyltransferase activity (%) Cloned α2,3(N)ST [3]	Cloned Sialyltransferase Activities α2,3(N) ST % [3]	α2,6(N)ST activity at varying acceptor concentration (FIG. 3A) ([2]; maximum concentration tested, 0.75 mM)	α2,3(N)ST activity compared to Galβ1,4GlcNAcβ1,6(Galβ1,3)GalNAcα-O-Bn (FIG. 3B) ([3]; lowest concentration tested, 0.05 mM)	α2,3(N)ST activity compared to Galβ1,4GlcNAcβ1,6(Galβ1,3)GalNAcα-O-Bn (FIG. 3B) ([3]; maximum concentration tested, 0.25 mM)	Sialyltransferase activity (%) Cloned α2,3(N)ST ([3]; listed as Galβ1,4(6-O-Sulfo)GlcNAcβ1,6(Galβ1,3)GalNAcα-)	Sialyltransferase activity (%) LNCaP α2,3(O)ST (LNCaP α2,3(O)ST)	LNCaPα2,3(O)ST % (LNCaP α2,3(O)ST)
CO[C@H]1[C@@H](O)[C@@H](CO)O[C@@H](O[C@H]2[C@H](O)[C@@H](NC(C)=O)[C@H](OC[C@H]3O[C@H](OCc4ccccc4)[C@H](NC(C)=O)[C@@H](O[C@@H]4O[C@H](CO)[C@H](O)[C@H](O)[C@H]4O)[C@H]3O)O[C@@H]2CO)[C@@H]1O [3-O-MeGalβ1,4GlcNAcβ1,6(Galβ1,3)GalNAcα-O-Bn]	100.0% and 100.0^c %	100.0^c %	4.4%	6.4%	6.1%	4.5%					100.9% and 100.0% and 100.0^d %	100.0^d %
CO[C@@H]1[C@H](O)[C@@H](O)[C@H](O[C@H]2[C@H](O)[C@@H](NC(C)=O)[C@H](OC[C@H]3O[C@H](OCc4ccccc4)[C@H](NC(C)=O)[C@@H](O[C@@H]4O[C@H](CO)[C@H](O)[C@H](O)[C@H]4O)[C@H]3O)O[C@@H]2CO)O[C@@H]1CO [4-O-MeGalβ1,4GlcNAcβ1,6(Galβ1,3)GalNAcα-O-Bn]		103.0%		12.6%		99.8%	almost inactive	four fold	two-fold			97.1%
C=CCOC1OC(CO)C(O)C(OC2OC(CO)C(O)C(O)C2O)C1NC(C)=O (stereo not drawn) [Galβ1,3GlcNAcβ-O—Al]	42.1%		3.0%		123.1%						3.7%	

Second part, led by results:

Sialyltransferase activity (%) Cloned α2,3(O)ST [1]	Cloned Sialyltransferase Activities α2,3(O) ST % [1]	Sialyltransferase activity (%) Cloned α2,6(N)ST [2]	Cloned Sialyltransferase Activities α2,6(N)ST % [2]	Sialyltransferase activity (%) Cloned α2,3(N)ST [3]	Cloned Sialyltransferase Activities α2,3(N) ST % [3]	α2,6(N)ST activity at varying acceptor concentration (FIG. 3A) ([2]; maximum concentration tested, 0.75 mM)	α2,3(N)ST activity compared to Galβ1,4GlcNAcβ1,6(Galβ1,3)GalNAcα-O-Bn (FIG. 3B) ([3]; lowest concentration tested, 0.05 mM)	α2,3(N)ST activity compared to Galβ1,4GlcNAcβ1,6(Galβ1,3)GalNAcα-O-Bn (FIG. 3B) ([3]; maximum concentration tested, 0.25 mM)	Sialyltransferase activity (%) Cloned α2,3(N)ST ([3]; listed as Galβ1,4(6-O-Sulfo)GlcNAcβ1,6(Galβ1,3)GalNAcα-)	Compound	Sialyltransferase activity (%) LNCaP α2,3(O)ST (LNCaP α2,3(O)ST)	LNCaPα2,3(O)ST % (LNCaP α2,3(O)ST)
27.2%		30.6^17%		28.1% and 28.1^21%					28.1%	CO[C@H]1O[C@H](CO[C@@H]2O[C@H](COS(=O)(=O)O)[C@@H](O[C@@H]3O[C@H](CO)[C@H](O)[C@H](O)[C@H]3O)[C@H](O)[C@H]2NC(C)=O)[C@H](O)[C@H](O[C@@H]2O[C@H](CO)[C@H](O)[C@H](O)[C@H]2O)[C@H]1NC(C)=O [Galβ1,4(6-O-Sulfo)GlcNAcβ1,6(Galβ1,3)GalNAcα-O-Me]	14.8%	
	77.2%		77.7^19%		96.9^25%					CC(=O)N[C@H]1[C@H](OC[C@H]2O[C@H](OCc3ccccc3)[C@H](NC(C)=O)[C@@H](O[C@@H]3O[C@H](CO)[C@H](O)[C@H](F)[C@H]3O)[C@H]2O)O[C@H](CO)[C@@H](O[C@@H]2O[C@H](CO)[C@H](O)[C@H](O)[C@H]2O)[C@@H]1O [Galβ1,4GlcNAcβ1,6(3-FGalβ1,3)GalNAcα-O-Bn]		1.7%
49.6%	49.6%	97.7%	100.0^a %	95.3%	100.0^b %					CO[C@H]1[C@@H](O)[C@@H](CO)O[C@@H](O[C@H]2[C@@H](O)[C@@H](CO[C@@H]3O[C@H](CO)[C@@H](O[C@@H]4O[C@H](CO)[C@H](O)[C@H](O)[C@H]4O)[C@H](O)[C@H]3NC(C)=O)O[C@H](OCc3ccccc3)[C@@H]2NC(C)=O)[C@@H]1O [Galβ1,4GlcNAcβ1,6(3-O-MeGalβ1,3)GalNAcα-O-Bn]	3.0%	3.0%

Source: patent US20100221763A1, “Specific Acceptors for Transferases to Saccharides and Method for Obtaining and Using Same” (Health Research, Inc, priority 2005, published 2010)
